Measured values as given in patent US9737487B2, “Cyclodextrin compositions encapsulating a selective ATP inhibitor and uses thereof” (The Johns Hopkins University, priority 2014, dated 2017).
Counter-ions that a name gives are not always drawn.

What was measured:
[1] = system: orthotopic MiaPaCa-2 tumors; test: Orthotopic lucMiaPaCa-2 xenograft, systemic treatment with BLI follow-up, survival and necropsy (Example 6); type: in vivo, mice
Experimental: Male athymic nude mice (body weight, 20-25 g; 4 weeks old; Crl:NU (NCr)-Fox1^nu; Charles River Laboratory, Germantown, Md., USA) were used in accordance with institutional guidelines under approved Animal Care and Use Committee protocols. Mice were maintained in laminar flow rooms at constant temperature and humidity with food and water given ad libitum. Orthotopic xenograft tumors were generated by implantation of 1.5×10^6 lucMiaPaCa-2, suspended in 50 μl PBS, into the tail of the pancreas in anesthetized mice. To accomplish this, mice were placed into a clean anesthesia induction chamber (oxygen flow rate, 1 liter/minute; isoflurane concentration of 3-4%). Upon loss of the righting reflex, animals were placed on the surgical procedure surface, where a nose cone was used to maintain anesthesia (oxygen flow, 0.8 liters/minute; Isoflurane concentration, 1.5-2%). A small, left abdominal flank incision was made, and the pancreas was exteriorized to inject the cell solution using a 30 G Hamilton syringe. A successful subcapsular intrapancreatic injection was identified by the appearance of a fluid bleb without intraperitoneal leakage. The abdominal cavity was closed with a double-layer of non-absorbable suture material (Kim et al. (2009) Nat. Protocol. 4:1670-1680).
Tumor viability was confirmed via in vivo bioluminescence imaging (BLI) on day 7 after the surgical implantation. Anesthetized tumor-bearing mice were injected intraperitoneally with D-luciferin 150 mg/kg and optically imaged 5 minutes later using the IVIS 200 system (Xenogen). The pseudocolor image representing the spatial distribution of photons was overlaid on a previously acquired grayscale photographic image. A region of interest (ROI) was created to include the optical tumor image. Signal intensity was quantified within the ROI in photons/second/squared centimeter/steradian (p/s/cm2/Sr) after a 10-second exposure using Living Image software (Xenogen). Additionally, orthotopic growth of the tumors was confirmed prior to treatment using small-animal ultrasound imaging (USI). In brief, anesthetized mice were subjected to examination using the VEVO2100 (Visual Sonics Inc., Toronto, Canada, kindly provided by Dr. Harry C. Dietz) by applying a MS-550D MicroScan transducer probe with 40 MHz (broadband with 22-55 MHz). Tumor localization was confirmed using the cranial tip of the left kidney and the caudal tip of the spleen as anatomic landmarks (Ota et al. (2013) Target. Oncol. 8:145-151; Tuli et al. (2012) Translat. Oncol. 5:77-84). […]

Suit-2 cells [2] = test: Monolayer cell culture viability assay (CellTiter-Glo), Suit-2; type: cell-based; settings: Homo sapiens, normoxic, 72 hrs. exposure, barely achieved
Experimental: (§1) Two human pancreatic adenocarcinoma cell lines, lucMiaPaCa-2 (stably transfected with the luciferase-aminoglycoside phosphotransferase fusion gene, kindly provided by Dr. Phuoc T. Tran) and Suit-2 (kindly provided by Dr. Shinichi Ota, Japan) were cultured in RPMI or MEM media, respectively, both supplemented with 10% FBS and 1% Penicillin-Streptomycin. The effects of different drugs on cell viability were determined by quantifying intracellular adenosine triphosphate (ATP) levels using a luminescence-based kit (CellTiter-Glo, Promega) and a multilable 96-well plate (Costar). The accuracy and reproducibility of viability measurements using this luminiscence-based kit in lucMiaPaCa-2 cells was confirmed using the Dual-Reporter assay kit (Promega). In brief, 5×10^3 cells were seeded in triplicate and incubated for 72 hrs. under normoxic or hypoxic (1% O2-level, balanced with CO2 and nitrogen within a controlled atmosphere chamber) conditions. Indicated amounts of free 3-BrPA, 1:1-β-CD-3-BrPA or β-CD as a control were dissolved in PBS and added to the medium for 24 hrs. of treatment. For the experiments with gemcitabine, cells were incubated for 24 hrs. prior to a 72 hrs. exposure to the drug. Cell viability was determined following the manufacturer's protocol.

lucMiaPaCa-2 cells = test: Monolayer cell culture viability assay (CellTiter-Glo), normoxic or hypoxic, lucMiaPaCa-2; type: cell-based; settings: Homo sapiens; normoxic, 72 hrs. exposure; barely achieved
Experimental: as §1

[3] = system: subcutaneous pancreatic cancer xenografts; settings: 5 mg/kg, twice per week, systemic; cited from earlier work
[4] = system: matrix-metalloproteinase 9 (MMP-9); test: MMP-9 secretion by gelatin zymography and immunoblotting, Suit-2; type: cell-based, human; settings: 24 hrs., dose that did not induce apoptosis or reduce cell viability
Experimental: (§2) Zymography assays were performed to determine the activity of secreted MMP-9. Accordingly, 4×10^6 Suit-2 cells and 2.5×10^6 lucMiaPaCa-2 cells were seeded in 75 cm^2-flasks and incubated overnight at 37° C. under normoxic conditions. The following day, fresh FBS-free medium containing different concentrations of 3-BrPA was added and cells were incubated for an additional 24 hrs. Subsequently, supernatants were collected, filtered, and the final protein concentrations were determined using the 2D Quant Kit (GE Healthcare). After adjustment for concentration, each sample was loaded onto two 10% gelatin zymography gels (Novex, Invitrogen). Following electrophoresis, proteins in one of the two gels were renaturated and enzymatic digestion was allowed overnight at 37° C. in a developing buffer. The gel was stained with 4 parts 0.1% Coomassie Brilliant Blue in 1 part 100% methanol for 24 hrs. and washed with distilled (DI) water until digested areas were detectable as white bands. Western Blot analysis was performed using the duplicate gel. Proteins were blotted onto a PVDF-Membrane and blocked using 5% skimmed milk in 1×TBS and 0.1% Tween in DI (TBST). […] The HRP provided an […] signal (ECL Kit, GE Healthcare), which was analyzed with ImageJ 1.46r software (Wayne Rasband, National Institute of Health) and used to quantify signal intensity by comparing line integrals.

MiaPaCa-2 cells = test: Matrigel invasion assay, MiaPaCa-2; type: cell-based, human; settings: sub-lethal concentrations, 48 hrs.
Experimental: (§3) The ability of 3-BrPA to inhibit tumor invasion was studied using a matrigel invasion assay, as well as gelatin zymography (Hu and Beeton (2010) J. Visual. Exp. 45:2445; Scott et al. (2011) J. Visual. Exp. 58:e3525). For the matrigel invasion assays, a coating buffer containing 0.01 M Tris and 0.7% sodium chloride was prepared and used to dilute the matrigel basement membrane (BD Biosciences, #356234) to 300 ug/ml. Subsequently, Boyden chambers (Transwell, Corning; 6.5 mm-diameter, 8 um pore size) were coated with 100 μl matrigel solution and stored at 37° C. for 2 hrs. to allow for gelatination. Approximately 7.5×10^4 cells were resuspended in 500 μl FBS-free medium and plated into the upper chamber of the insert, which was then placed into a 24-well plate containing […] FBS-containing medium. After overnight incubation at 37° C., various amounts of 3-BrPA dissolved in PBS were added to the upper chamber. Fourty-eight hours later, non-invasive cells were removed from the matrigel with a cotton swab. Invaded cells adherent to the bottom side of the permeable insert were fixed and stained with the Diff Quik Stain Kit (Polysciences Inc.). […] Invasion of cells was quantified by measuring the area of stained cells after treatment compared to untreated samples at 10× magnification.

[5] = in vivo, after systemic administration; cited from earlier work
[6] = Comparative dose escalation studies in non-tumor-bearing animals; type: in vivo, mice; settings: after a single injection
Experimental: The anti-cancer efficacy of systemically delivered β-CD-3-BrPA was tested using a xenograft model of human pancreatic cancer in athymic nude mice. Prior to choosing the therapeutic dose for more detailed studies, comparative dose escalation studies in non-tumor-bearing animals were performed for both β-CD-3-BrPA and free 3-BrPA. […] animals with orthotopically-implanted and BLI- and USI-confirmed MiaPaCa-2 tumors were then randomized to receive intraperitoneal (i.p.) injections of β-CD-3-BrPA (N=21), gemcitabine (N=7), or β-CD (N=7). An additional group of animals with orthotopic implants (N=7) was treated with free 3-BrPA. […] At the end of the experiment (Day 28), only 2/7 animals (28%) treated with the free drug were still alive (FIG. 12, Panel C). […] After four weeks of treatment, a comparison of BLI signal intensity between the groups was performed. […] After achieving this endpoint, animals were sacrificed and tumors were harvested for further analysis. All animals were subjected to necropsies and organs (brain, heart, lungs, bowel, liver, and kidneys) were harvested for the analysis of potential tissue damage.

Suit-2 cells [7] = test: Matrigel invasion assay, Suit-2; type: cell-based, human; settings: sub-lethal concentrations, 72 hrs.
Experimental: as §3

[8] = system: matrix-metalloproteinase 9 (MMP-9); test: MMP-9 secretion by gelatin zymography and immunoblotting, MiaPaCa-2; type: cell-based, human; settings: 24 hrs., dose that did not induce apoptosis or reduce cell viability
Experimental: as §2

Structure (SMILES)	BLI signal increase as compared to baseline ([1]; after four weeks of treatment) [fold]	IC50 (Suit-2 cells [2]) [nM]	IC50 (lucMiaPaCa-2 cells) [nM]	efficacy of 3-BrPA alone [3]	animals died before the acquisition of the first follow-up BLI ([1]; daily i.p. 5 mg/kg in 500 μl saline)	loss of animals at the end of the experiment (treatment-related toxicity, Kaplan-Meier) ([1]; daily i.p. 5 mg/kg, 28 days)	animals still alive at the end of the experiment ([1]; daily i.p. 5 mg/kg, Day 28)	concentration at which marked reduction in the secretion of MMP-9 begins [4] [µM]	drug concentration showing a reduction in invasion (as low as) (MiaPaCa-2 cells) [µM]	time of inactivation through interaction with serum proteins (as early as) [5] [min]	median lethal dose (LD50) [6] [mg/kg]	drug concentration showing a reduction in invasion (as low as) (Suit-2 cells [7]) [µM]	concentration at which marked reduction in the secretion of MMP-9 begins [8] [µM]
Nc1ccn([C@@H]2O[C@H](CO)[C@@H](O)C2(F)F)c(=O)n1 [gemcitabine, gemcitabine hydrochloride salt]	60	100	100										
O=C(O)C(=O)CBr [3-BrPA, 3-bromopyruvate]				did not report any significant efficacy	3/7	5/7	2/7	6.25	12.5	2 to 3	10	12.5	6.25
